For data set [1] the following is noted: rats, Kanter et al. (1994); cited from earlier work.
For data set [2], the system named is prostate xenograft tumors. The settings on record: nude mice; cited from earlier work.
The conditions of data set [3]: Creaven et al. (1997); cited from earlier work.
For data set [4], the system named is A549 human large cell hung carcinoma. The settings on record: constant infusion via Alzet pump delivery for 5 days; cited from earlier work.
In data set [5] the test system is tumor cell lines. As to the kind of experiment: In vitro anti-proliferative testing, summary statements. The settings on record: FIGS. 57-59: PC3, DUPRO, LNCAP. Format: cell-based, human. On the procedure: A conventional MTT assay was used to evaluate percent cell survival. Exponentially growing monolayer cells were plated in 96-well plates at a density of 500 cells per well and allowed to grow for 24 hours. Serial dilutions of the drugs were added to the wells. Six days after drug treatment, 25 μl of MTT solution (5 mg/ml) was added to each well and incubated for 4 hours at 37° C. Then 100 μl of lysis buffer (20% sodium dodecyl sulfate, 50% DMF, and 0.8% acetic acid, pH 4.7) was added to each well and incubated for an additional 22 hours. A microplate reader (“EMAX”-brand, Molecular Devices, Sunnyvale, Calif.) set at 570 nm was used to determine the optical density of the cultures. Results are expressed as a ratio of the optical density in drug-treated wells to the optical density in wells treated with vehicle only.

Consider `CCNCCCNCCCNCCCNCC` [BE-333, N1,N11-diethylnorspermine], for which, in data set [1], the toxicity on administration result was “labored breathing, convulsive movements and acute death”. For the same compound, the “inhibition of prostate xenograft tumors” value in data set [2] is reported as “particularly effective in inhibiting prostate xenograft tumors in nude mice”. The side effects result in data set [3] is “headache, nausea and vomiting, unilateral weakness, dysphagia, dysarthria, numbness, paresthesias, and ataxia”. In addition, in data set [4], the “anti-tumor activity, effect of schedule” value was “dramatically improves the anti-tumor activity”.
In the case of `CCNCCCCNCCCCNCCCCNCCCCNCCO` [SL-11141], the “effectiveness against tumor cell lines in vitro” value in data set [5] is recorded as “display effectiveness against tumor cell lines in vitro”.

Source of the values: patent US7279502B2, “Polyamine analog conjugates and quinone conjugates as therapies for cancers and prostate diseases” (Cellgate, Inc., priority 1999, dated 2007).
